Test [1] addresses T1, CSF-1R (FMS) (Homo sapiens (Human), UniProt P07333). Particulars: representative value, substrate Tyr 01, ATP Bin 500 μM; read-out: IC50 (nM) of known inhibitor, CSF-1R (FMS); cited from earlier work.
Test [2] relates to CD11b and CD24 positive cells. In words: In vivo efficacy study: flow cytometry of blood leukocytes from mice bearing NZM12 human melanoma xenografts. More on the design: species or system NIH-III female mice. Particulars: dosed daily for 14 days.
Another test addresses KDR (VEGFR2) (Homo sapiens (Human), UniProt P35968). In words: SelectScreen Z'-LYTE kinase assay, Assay 540 for KDR (VEGFR2). The test is classed as biochemical. Particulars: Z'-LYTE activity assay, 75 μM ATP (Km app); read-out: VEGFR2 Enzyme IC50.
Test [3] addresses T1, CSF-1R (FMS). In words: SelectScreen Z'-LYTE kinase assay, Assay 336 for CSF-1R (FMS). The test is classed as biochemical. Particulars: Z'-LYTE activity assay, 500 μM ATP (Km app); read-out: CSF-1R Enzyme IC50.

Consider 4 compounds from patent publication US11028064B2, “Tricyclic heterocyclic derivatives and uses thereof” (AUCKLAND UNISERVICES LIMITED, priority 2016, dated 2021).

Counter-ions that a name gives are not always drawn. Like-named read-outs stand apart in the source and are kept apart here.

T1 sequence (P07333 20-972): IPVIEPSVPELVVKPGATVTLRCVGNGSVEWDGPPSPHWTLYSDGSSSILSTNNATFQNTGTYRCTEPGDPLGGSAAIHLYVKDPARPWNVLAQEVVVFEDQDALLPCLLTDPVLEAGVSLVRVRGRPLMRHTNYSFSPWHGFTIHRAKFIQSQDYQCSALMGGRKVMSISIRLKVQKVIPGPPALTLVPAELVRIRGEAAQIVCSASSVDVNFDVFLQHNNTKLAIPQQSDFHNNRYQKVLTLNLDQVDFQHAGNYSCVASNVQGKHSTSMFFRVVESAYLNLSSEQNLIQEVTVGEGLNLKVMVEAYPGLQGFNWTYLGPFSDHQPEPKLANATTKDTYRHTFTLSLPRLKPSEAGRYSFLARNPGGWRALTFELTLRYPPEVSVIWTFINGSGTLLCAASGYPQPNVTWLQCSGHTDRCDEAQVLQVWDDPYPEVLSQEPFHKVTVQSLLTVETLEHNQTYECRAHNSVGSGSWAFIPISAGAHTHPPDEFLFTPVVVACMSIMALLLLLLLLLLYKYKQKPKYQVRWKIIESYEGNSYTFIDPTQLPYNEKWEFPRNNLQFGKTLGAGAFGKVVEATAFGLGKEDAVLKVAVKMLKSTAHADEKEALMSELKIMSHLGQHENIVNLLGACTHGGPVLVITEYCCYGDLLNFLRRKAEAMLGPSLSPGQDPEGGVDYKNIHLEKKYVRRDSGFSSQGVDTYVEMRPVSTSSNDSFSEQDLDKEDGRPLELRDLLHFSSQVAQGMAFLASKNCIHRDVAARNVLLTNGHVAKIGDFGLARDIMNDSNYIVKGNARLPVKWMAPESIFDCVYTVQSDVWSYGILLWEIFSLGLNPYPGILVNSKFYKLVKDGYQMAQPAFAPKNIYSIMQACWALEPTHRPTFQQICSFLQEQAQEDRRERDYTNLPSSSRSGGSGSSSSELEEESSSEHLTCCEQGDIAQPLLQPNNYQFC
KDR (VEGFR2), sequence (P35968 20-1356): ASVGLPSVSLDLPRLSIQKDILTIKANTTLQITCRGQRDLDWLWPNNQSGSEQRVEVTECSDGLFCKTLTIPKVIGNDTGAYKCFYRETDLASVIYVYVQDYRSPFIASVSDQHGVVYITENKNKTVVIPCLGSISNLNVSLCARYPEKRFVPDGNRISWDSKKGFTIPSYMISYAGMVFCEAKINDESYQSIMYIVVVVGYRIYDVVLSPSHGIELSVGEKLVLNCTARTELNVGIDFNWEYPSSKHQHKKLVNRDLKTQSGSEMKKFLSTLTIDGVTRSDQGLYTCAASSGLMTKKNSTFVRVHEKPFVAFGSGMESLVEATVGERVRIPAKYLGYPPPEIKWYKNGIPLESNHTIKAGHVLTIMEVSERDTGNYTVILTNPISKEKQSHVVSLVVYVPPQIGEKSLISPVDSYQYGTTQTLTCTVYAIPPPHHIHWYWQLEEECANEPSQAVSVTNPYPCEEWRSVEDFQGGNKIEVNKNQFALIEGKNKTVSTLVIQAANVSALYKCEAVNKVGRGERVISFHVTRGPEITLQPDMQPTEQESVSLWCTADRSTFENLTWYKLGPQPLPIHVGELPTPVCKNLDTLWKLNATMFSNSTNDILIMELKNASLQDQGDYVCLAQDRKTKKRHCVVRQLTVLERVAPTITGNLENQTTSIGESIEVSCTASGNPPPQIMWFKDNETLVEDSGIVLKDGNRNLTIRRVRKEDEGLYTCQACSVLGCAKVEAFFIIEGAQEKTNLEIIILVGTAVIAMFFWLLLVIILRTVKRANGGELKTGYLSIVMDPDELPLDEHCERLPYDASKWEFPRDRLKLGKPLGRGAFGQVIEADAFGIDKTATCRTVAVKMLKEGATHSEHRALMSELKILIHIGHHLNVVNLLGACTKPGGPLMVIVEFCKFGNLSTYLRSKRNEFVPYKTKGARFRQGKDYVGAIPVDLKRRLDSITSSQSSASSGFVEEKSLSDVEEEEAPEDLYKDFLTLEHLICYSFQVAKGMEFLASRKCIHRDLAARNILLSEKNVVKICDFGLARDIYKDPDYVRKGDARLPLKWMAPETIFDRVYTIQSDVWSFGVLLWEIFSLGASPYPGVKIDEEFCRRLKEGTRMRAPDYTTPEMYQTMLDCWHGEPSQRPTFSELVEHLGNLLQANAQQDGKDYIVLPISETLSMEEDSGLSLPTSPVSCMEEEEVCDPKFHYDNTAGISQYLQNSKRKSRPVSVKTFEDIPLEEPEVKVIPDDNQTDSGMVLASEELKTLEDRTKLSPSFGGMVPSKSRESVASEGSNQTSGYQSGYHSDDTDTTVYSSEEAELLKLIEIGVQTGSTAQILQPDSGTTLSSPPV

Turning to `COc1cc2ncnc(Nc3cccc(Cl)c3)c2cc1OC` [Tyrphostin AG1478], the IC50 on CSF-1R (FMS) [1] was 6480 nM. Turning to `FC(F)(F)c1ccc(CNc2ccc(Cc3c[nH]c4ncc(Cl)cc34)cn2)cn1` [PLX3397, Pexidartinib, reference compound], the “number of cells of myeloid lineage in the treated mice” value in test [2] was “reduce the number of cells of myeloid lineage”. In the case of `Cc1cc(OCCN(C)C)c2oc3cc(Oc4ccc(CCC(=O)NC5CCCC5)nc4)ccc3c(=O)c2c1` [dimethanesulfonate salt of compound 22, N-cyclopentyl-3-(5-((5-(2-(dimethylamino)ethoxy)-7-methyl-9-oxo-9H-xanthen-3-yl)-oxy)pyridin-2-yl)propanamide], the “number of cells of myeloid lineage in the treated mice” value in test [2] was “reduce the number of cells of myeloid lineage”. For the same compound, the “levels of CD11b positive cells” value in test [2] (blood leukocytes, versus PLX3397 and control (FIG. 1)) is “reduced the levels of CD11b and CD24 positive cells to a similar or greater extent compared with treatment with PLX3397”. Also, in test [2] (blood leukocytes, versus PLX3397 and control (FIG. 2)), the “levels of CD24 positive cells” value is “reduced the levels of CD11b and CD24 positive cells to a similar or greater extent compared with treatment with PLX3397”.

Turning to `Cc1cc(OCCN2CCN(CC(F)(F)F)CC2)c2oc3cc(Oc4ccc(CCC(=O)NC5CCCC5)nc4)ccc3c(=O)c2c1` [Example 59, N-Cyclopentyl-3-(5-((7-methyl-9-oxo-5-(2-(4-(2,2,2-trifluoroethyl)piperazin-1-yl)ethoxy)-9H-xanthen-3-yl)oxy)pyridin-2-yl)propanamide], the IC50 was > 10 µM at KDR (VEGFR2) and < 0.1 µM on CSF-1R (FMS) [3].
